Common to all, as to type: cell-based
Assay [1] deals with MiaPaca human pancreatic carcinoma cells. The experiment in a line: Cell proliferation assay, Alamar Blue, MiaPaca. On the procedure: (§1) A representative cell-proliferation assay protocol using Alamar Blue dye (stored at 4° C., use 20 ul per well) is described hereafter.
(§2) c. Plate 4,000-5,000 cells per well in 100 μl of medium and seed into a 96-well plate according to the following plate layout. Add cell culture medium only to wells B10 to B12. Wells B1 to B9 have cells but no compound added.
(§3) d. Add 100 μl of 2× drug dilution to each well in a concentration shown in the plate layout above. At the same time, add 100 μl of media into the control wells (wells B10 to B12). Total volume is 200 μl/well.
(§4) e. Incubate four (4) days at 37° C., 5% CO2 in a humidified incubator.
(§5) f. Add 20 μl Alamar Blue reagent to each well.
(§6) g. Incubate for four (4) hours at 37° C., 5% CO2 in a humidified incubator.
(§7) h. Record fluorescence at an excitation wavelength of 544 nm and emission wavelength of 590 nm using a microplate reader.
(§8) In the assays, cells are cultured with a test compound for approximately four days, the dye then is added to the cells and fluorescence of […] dye is detected after approximately four hours. Different types of cells can be utilized in the assays (e.g., HCT-116 human colorectal carcinoma cells, PC-3 human prostatic cancer cells and MiaPaca human pancreatic carcinoma cells). Anti-proliferative effects of representative compounds are provided hereafter.

The test system of another assay is Jurkat. The experiment in a line: Cell proliferation assay, Alamar Blue, Jurkat.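 Further: cells exposed to compound for about 4 days at 37 °C, then Alamar Blue added and fluorescence read after about 4 h, controls given medium without drug.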 The note with it: Homo sapiens, Table 18.
Assay [2] relates to PC-3 human prostatic cancer cells. The experiment in a line: Cell proliferation assay, Alamar Blue, PC-3. The note with it: Table 18, read-out: IC50 PC3. As for the experimental part:
as §1, §2, §3, §4, §5, §6, §7, §8

For assay [3], the system named is HCT-116 human colorectal carcinoma cells. The experiment in a line: Cell proliferation assay, Alamar Blue, HCT-116. (In general: Resazurin is reduced to fluorescent resorufin, in cell work by metabolically active cells.);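 further: cells exposed to compound for about 4 days, then Alamar Blue added and fluorescence read after about 4 h, medium-only wells as control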
Setting [4] is: HCT-116, Table 16, second HCT-116 column.

On to `O=C(O)c1ccc2c(c1)nc(NC1CC1)c1nc(SCc3ccccc3Cl)ncc12` [drawing 1072], for which the IC50 is greater than 50 µM in assay [1] (MIA PaCa-2, Table 18) and 29.3 µM with Jurkat.
Regarding `Fc1cc(Nc2nc3cc(-c4nnn[nH]4)ccc3c3cnccc23)ccc1Cl`, the IC50 in assay [2] is greater than 50 µM.
Take `O=C(O)c1ccc2c(c1)nc(Nc1cccc(C(F)(F)F)c1)c1ccsc12`: the IC50 is greater than 10 µM in assay [1] (MIA PaCa-2, Table 16) and greater than 10 µM in assay [3] (setting [4]).
As for `O=C(NCc1cccnc1)c1cccc(Nc2nc3cc(-c4nnn[nH]4)ccc3c3sccc23)c1`, the IC50 was greater than 10 µM in assay [1] (MIA PaCa-2, Table 16) and greater than 10 µM in assay [3] (setting [4]).
Take `COC(=O)c1ccc2c(c1)nc(NC1CC1)c1nc(SCc3ccccc3Cl)ncc12` [drawing 1069]: the concentration for half-maximal inhibition (IC50) in assay [1] (MIA PaCa-2, Table 18) was determined as 32.4 µM; in the assay on Jurkat, 4.67 µM.
For the compound `O=C(O)c1ccc2c(c1)nc(Nc1cccc(F)c1F)c1ccsc12`, the half-inhibitory concentration (IC50) is greater than 10 µM in assay [1] (MIA PaCa-2, Table 16) and greater than 10 µM in assay [3] (setting [4]).
On to `O=C(O)c1ccc2c(c1)nc(NCc1ccccc1)c1ccncc12` [drawing 1020], for which the IC50 in assay [1] (MIA PaCa-2, Table 18) was 31.2 µM; in assay [3] (HCT-116, Table 18), greater than 10 µM.
For `O=C(O)c1ccc2c(c1)nc(NC1CC1)c1ccncc12` [drawing 1097], in that order: 26.5 µM and greater than 10 µM.
As for `O=C(O)c1ccc2c(c1)nc(Nc1cc(F)ccc1F)c1ccsc12`, the IC50 in assay [1] (MIA PaCa-2, Table 16) was greater than 10 µM; in assay [3] (setting [4]) it was greater than 10 µM.
As for `CNS(=O)(=O)c1cccc(Nc2nc3cc(C(=O)O)ccc3c3sccc23)c1`, the IC50 is greater than 10 µM in assay [1] (MIA PaCa-2, Table 16) and greater than 10 µM in assay [3] (setting [4]).
On to `N#Cc1cc(F)cc(Nc2nc3cc(C(=O)O)ccc3c3sccc23)c1`, for which the IC50 in assay [1] (MIA PaCa-2, Table 16) is greater than 10 µM; in assay [3] (setting [4]), greater than 10 µM.
On to `CN(C)C(=O)c1cccc(Nc2nc3cc(-c4nnn[nH]4)ccc3c3sccc23)c1`, for which the 50% inhibitory concentration (IC50) in assay [1] (MIA PaCa-2, Table 16) is greater than 10 µM; in assay [3] (setting [4]), greater than 10 µM.
`O=C(O)c1ccc2c(c1)nc(Nc1cc(F)cc(C(F)(F)F)c1)c1ccsc12`: the IC50 in assay [1] (MIA PaCa-2, Table 16) is greater than 10 µM; in assay [3] (setting [4]), greater than 10 µM.
For `O=C(O)c1ccc2c(c1)nc(Nc1ccc(F)c(Cl)c1)c1ccsc12`, the IC50 is greater than 10 µM in assay [1] (MIA PaCa-2, Table 16) and greater than 10 µM in assay [3] (HCT-116, Table 16, first HCT-116 column).
In the case of `CCOc1cccc(Nc2nc3cc(C(=O)O)ccc3c3sccc23)c1`, the IC50 in assay [1] (MIA PaCa-2, Table 16) is greater than 10 µM; in assay [3] (setting [4]), greater than 10 µM.
For the compound `CCOc1ncc2c(n1)c(NC1CC1)nc1cc(C(=O)O)ccc12` [drawing 1073], the IC50 in assay [1] (MIA PaCa-2, Table 18) is greater than 50 µM; in assay [3] (HCT-116, Table 18) it was greater than 10 µM.
For the compound `O=C(O)c1ccc2c(c1)nc(Nc1ccc3[nH]ccc3c1)c1ccsc12`, the IC50 in assay [1] (MIA PaCa-2, Table 16) was greater than 10 µM; in assay [3] (setting [4]) it was greater than 10 µM.
Consider `O=C(O)c1ccc2c(c1)nc(Nc1cncc(C3CC3)c1)c1ncncc12`, for which the half-inhibitory concentration (IC50) is greater than 10 µM in assay [3] (HCT-116, Table 18) and greater than 50 µM in the assay on Jurkat.
Turning to `O=C(c1cccc(Nc2nc3cc(-c4nnn[nH]4)ccc3c3sccc23)c1)N1CCOCC1`, the 50% inhibitory concentration (IC50) in assay [1] (MIA PaCa-2, Table 16) was greater than 10 µM; in assay [3] (setting [4]) it was greater than 10 µM.
As for `O=C(O)c1ccc2c(c1)nc(N1CCOCC1)c1nc(NC3CC3)ncc12` [drawing 1085], the concentration for half-maximal inhibition (IC50) in assay [1] (MIA PaCa-2, Table 18) is greater than 50 µM; with Jurkat, 3.67 µM.
On to `CC(=O)N1CCN(C(=O)c2cccc(Nc3nc4cc(-c5nnn[nH]5)ccc4c4sccc34)c2)CC1`, for which the 50% inhibitory concentration (IC50) was greater than 10 µM in assay [1] (MIA PaCa-2, Table 16) and greater than 10 µM in assay [3] (setting [4]).
As to `Fc1cccc(Nc2nc3cc(-c4nnn[nH]4)ccc3c3cnccc23)c1`, the half-maximal inhibitory concentration (IC50) in assay [2] was greater than 50 µM.
Consider `Cc1cc(Nc2ncc3c(n2)c(Nc2ccc(F)c(Cl)c2)nc2cc(C(=O)O)ccc23)[nH]n1` [drawing 1093], for which the concentration for half-maximal inhibition (IC50) in assay [1] (MIA PaCa-2, Table 18) is 18.2 µM; in assay [3] (HCT-116, Table 18), greater than 10 µM.
For `O=C(O)c1ccc2c(c1)nc(NCc1ccccc1)c1nc(NC3CC3)ncc12` [drawing 1084], in that order: 12.9 µM and greater than 10 µM.
Take `O=C(O)c1ccc2c(c1)nc(Nc1cccc(Br)c1)c1ccsc12`: the IC50 in assay [1] (MIA PaCa-2, Table 16) was greater than 10 µM; in assay [3] (setting [4]) it was greater than 10 µM.
Consider `Brc1cccc(Nc2nc3cc(-c4nnn[nH]4)ccc3c3sccc23)c1`, for which the half-maximal inhibitory concentration (IC50) in assay [1] (MIA PaCa-2, Table 16) is greater than 10 µM; in assay [3] (setting [4]) it was greater than 10 µM.
`O=C(O)c1ccc2c(c1)nc(Nc1cccc(S(=O)(=O)NC3CC3)c1)c1ccsc12`: the IC50 in assay [1] (MIA PaCa-2, Table 16) is greater than 10 µM; in assay [3] (setting [4]), greater than 10 µM.

What is called IC50 is the concentration needed to halve the response being measured.

For the origin of these results see patent US9062043B2, “Fused tricyclic compounds as serine-threonine protein kinase and PARP modulators” (SENHWA BIOSCIENCES, INC., priority 2006, dated 2015).
